Several values for one entry are separate records, joined by “and”; a condition that tells them apart may be missing. Identical values can stand only once. Entries after “also recorded” stand apart in the source; their conditions may differ.
Assays:
[1] = target: CB1 receptors (Macaca mulatta, UniProt Q71SP5); test: Monkey brain PET with 11C-SD5024, baseline and rimonabant pre-blocked scans; settings: for VT Baseline: one value per monkey; for VT Preblocked: rimonabant 3 mg/kg i.v.
[2] = Lipophilicity LogD7.4; type: physicochemical; settings: n-octanol / 0.15 M sodium phosphate buffer pH 7.4, room temperature, 6 measurements
[3] = Pharmacological effects of injected 11C-SD5024 in healthy subjects; type: in vivo; settings: human, injected mass dose 242±47 pmol/kg, n=7
[4] = target: CB1 receptor (Homo sapiens, UniProt P21554); test: Human brain PET with 11C-SD5024, compartmental modeling; type: in vivo; settings: for VT / K1 / k2 / vB (%): one-tissue compartment model, mean±SD; for VT: 120 min; for K1 / k2 / vB (%): seven subjects; for Intersubject Variability of VT (SD/mean): n=7, 120min
Sequence of CB1 receptor (P21554 whole entry): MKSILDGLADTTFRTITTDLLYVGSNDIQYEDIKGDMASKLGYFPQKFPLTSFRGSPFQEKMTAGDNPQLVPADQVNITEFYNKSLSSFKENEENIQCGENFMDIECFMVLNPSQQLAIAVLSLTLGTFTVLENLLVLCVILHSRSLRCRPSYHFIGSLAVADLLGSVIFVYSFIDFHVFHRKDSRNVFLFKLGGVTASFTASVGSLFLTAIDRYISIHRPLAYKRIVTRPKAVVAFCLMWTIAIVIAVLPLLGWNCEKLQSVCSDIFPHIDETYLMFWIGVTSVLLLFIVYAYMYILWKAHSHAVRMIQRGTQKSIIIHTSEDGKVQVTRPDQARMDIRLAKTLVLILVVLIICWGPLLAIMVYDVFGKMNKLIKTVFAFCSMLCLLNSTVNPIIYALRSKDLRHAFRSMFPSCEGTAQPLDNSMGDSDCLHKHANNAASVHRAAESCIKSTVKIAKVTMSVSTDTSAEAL

[5] = Measurement of 11C-SD5024 in human arterial plasma; type: in vivo
[6] = monkey striatum, calculated from caudate and putamen (Table 2)

Sequence of CB1 receptors (Q71SP5 whole entry): as the sequence (P21554 whole entry) above

N#[11C]c1ccc(S(=O)(=O)NC(=N)N2CC(c3ccccc3)C(c3ccc(Cl)cc3)=N2)cc1 (stereo not drawn) [^11C-SD5024, [cyano-^11C](−)-3-(4-chlorophenyl)-N-[(4-cyanophenyl)sulfonyl]-4-phenyl-4,5-dihydro-1H-pyrazole-1-carboxamidine]
specific binding as proportion of VT ([1]; monkey brain, baseline vs receptor blockade with rimonabant 3 mg/kg i.v.): ~ 80%
Specific binding (%) ([1]; monkey striatum, (VT baseline – VT preblock)/VT baseline): 82%
VT (striatum) Baseline [1, 6]: 2.36 mL·cm^−3
VT (striatum) Preblocked [1, 6]: 0.44 mL·cm^−3
Specific binding (%) ([1]; monkey, Caudate, (VT baseline – VT preblocked)/VT baseline): 82% and 79%
VT Baseline ([1]; monkey, Caudate): 1.62 mL · cm^−3 and 2.79 mL · cm^−3
VT Preblocked ([1]; monkey, Caudate): 0.30 mL · cm^−3 and 0.60 mL · cm^−3
Specific binding (%) ([1]; monkey, Cerebellum, (VT baseline – VT preblocked)/VT baseline): 79% and 78%
VT Baseline ([1]; monkey, Cerebellum): 1.27 mL · cm^−3 and 2.34 mL · cm^−3
VT Preblocked ([1]; monkey, Cerebellum): 0.27 mL · cm^−3 and 0.51 mL · cm^−3
Specific binding (%) ([1]; monkey, Cingulate, (VT baseline – VT preblocked)/VT baseline): 84% and 82%
VT Baseline ([1]; monkey, Cingulate): 1.74 mL · cm^−3 and 3.58 mL · cm^−3
Specific binding (%) ([1]; monkey, Frontal Ctx, (VT baseline – VT preblocked)/VT baseline): 79% and 72%
VT Baseline ([1]; monkey, Frontal Ctx): 1.77 mL · cm^−3 and 3.13 mL · cm^−3
Specific binding (%) ([1]; monkey, Lateral Temporal Ctx, (VT baseline – VT preblocked)/VT baseline): 81% and 77%
VT Baseline ([1]; monkey, Lateral Temporal Ctx): 1.32 mL · cm^−3 and 2.52 mL · cm^−3
Specific binding (%) ([1]; monkey, Medial Temporal Ctx, (VT baseline – VT preblocked)/VT baseline): 71%
VT Baseline ([1]; monkey, Medial Temporal Ctx): 1.33 mL · cm^−3 and 2.54 mL · cm^−3
VT Preblocked ([1]; monkey, Medial Temporal Ctx): 0.39 mL · cm^−3 and 0.75 mL · cm^−3
Specific binding (%) ([1]; monkey, Occipital Ctx, (VT baseline – VT preblocked)/VT baseline): 78% and 71%
VT Baseline ([1]; monkey, Occipital Ctx): 1.07 mL · cm^−3 and 2.00 mL · cm^−3
Specific binding (%) ([1]; monkey, Parietal Ctx, (VT baseline – VT preblocked)/VT baseline): 81% and 74%
VT Baseline ([1]; monkey, Parietal Ctx): 1.39 mL · cm^−3 and 2.70 mL · cm^−3
Specific binding (%) ([1]; monkey, Putamen, (VT baseline – VT preblocked)/VT baseline): 83% and 81%
VT Baseline ([1]; monkey, Putamen): 1.84 mL · cm^−3 and 3.04 mL · cm^−3
VT Preblocked ([1]; monkey, Putamen): 0.31 mL · cm^−3 and 0.56 mL · cm^−3
Specific binding (%) ([1]; monkey, Thalamus, (VT baseline – VT preblocked)/VT baseline): 64% and 68%
VT Baseline ([1]; monkey, Thalamus): 0.83 mL · cm^−3 and 1.85 mL · cm^−3
VT Preblocked ([1]; monkey, Thalamus): 0.30 mL · cm^−3 and 0.59 mL · cm^−3
time of peak brain activity ([1]; monkey, baseline): ~ 60 min
brain activity (peak) ([1]; monkey, baseline, after i.v. injection): ~ 2 SUV
average SE of VT across brain regions (identifiability) ([1]; monkey, one-compartment model): 3.8%
LogD7.4 [2]: 3.79±0.09
pharmacological effects (subjective reports, vital signs, laboratory tests) [3]: no pharmacological effects
decrease of brain radioactivity from peak time (40 min) to end of scan (120 min) [4]: 20%
time of peak brain activity [4]: ~ 40 min
VT ([4]; Caudate, n=7): 2.31±0.55 mL·cm^−3
K1 ([4]; Caudate): 0.028±0.005 mL/cm^3/min
k2 ([4]; Caudate): 0.013 ± 0.003 min⁻¹
vB (%) ([4]; Caudate): 3.7±0.67%
VT ([4]; Cerebellum, n=7): 1.93±0.38 mL·cm^−3
K1 ([4]; Cerebellum): 0.030±0.006 mL/cm^3/min
k2 ([4]; Cerebellum): 0.016 ± 0.003 min⁻¹
vB (%) ([4]; Cerebellum): 6.4±0.69%
VT ([4]; Cingulate, n=7): 2.79±0.58 mL·cm^−3
K1 ([4]; Cingulate): 0.029±0.006 mL/cm^3/min
k2 ([4]; Cingulate): 0.011 ± 0.002 min⁻¹
vB (%) ([4]; Cingulate): 5.0±0.58%
Intersubject Variability of VT (SD/mean) ([4]; Frontal): 21%
VT ([4]; Frontal, n=7): 2.57±0.54 mL·cm^−3
K1 ([4]; Frontal): 0.032±0.006 mL/cm^3/min
k2 ([4]; Frontal): 0.013 ± 0.003 min⁻¹
vB (%) ([4]; Frontal): 4.4±0.66%
VT ([4]; Lateral temporal, n=7): 2.66±0.57 mL·cm^−3
K1 ([4]; Lateral temporal): 0.032±0.007 mL/cm^3/min
k2 ([4]; Lateral temporal): 0.012 ± 0.002 min⁻¹
vB (%) ([4]; Lateral temporal): 5.2±0.64%
VT ([4]; Medial temporal, n=7): 2.48±0.65 mL·cm^−3
K1 ([4]; Medial temporal): 0.023±0.005 mL/cm^3/min
k2 ([4]; Medial temporal): 0.010 ± 0.002 min⁻¹
vB (%) ([4]; Medial temporal): 5.3±0.58%
VT ([4]; Occipital, n=7): 2.00±0.38 mL·cm^−3
K1 ([4]; Occipital): 0.035±0.007 mL/cm^3/min
k2 ([4]; Occipital): 0.018 ± 0.003 min⁻¹
vB (%) ([4]; Occipital): 5.9±0.49%
VT ([4]; Parietal, n=7): 2.44±0.50 mL·cm^−3
K1 ([4]; Parietal): 0.034±0.006 mL/cm^3/min
k2 ([4]; Parietal): 0.014 ± 0.003 min⁻¹
vB (%) ([4]; Parietal): 4.8±0.50%
Intersubject Variability of VT (SD/mean) ([4]; Putamen): 22%
VT ([4]; Putamen, n=7): 3.16±0.70 mL·cm^−3
K1 ([4]; Putamen): 0.038±0.008 mL/cm^3/min
k2 ([4]; Putamen): 0.012 ± 0.003 min⁻¹
vB (%) ([4]; Putamen): 4.0±0.79%
peak brain uptake of 11C-SD5024 higher than that of 11C-OMAR by ([4]; Table 5): about 40%
peak brain uptake of 11C-SD5024 lower than that of 11C-MePPEP by ([4]; Table 5): about 20%
peak brain uptake of 11C-SD5024 relative to 11C-OMAR ([4]; Table 5): ~ 1.4 times
VT of 11C-SD5024 relative to 11C-OMAR ([4]; Table 6): about twice higher; also recorded: about two-fold greater; also recorded: about twice greater
Intersubject Variability of VT (SD/mean) ([4]; Thalamus): 24%
VT ([4]; Thalamus, n=7): 1.71±0.41 mL·cm^−3
K1 ([4]; Thalamus): 0.029±0.006 mL/cm^3/min
k2 ([4]; Thalamus): 0.017 ± 0.004 min⁻¹
vB (%) ([4]; Thalamus): 4.6±0.49%
accumulation of radiometabolites in brain ([4]; from time stability of VT): do not significantly accumulate in brain
intersubject variability for VT (Table 6) ([4]; n=7): ~ 24%
intersubject variability of VT, average value ([4]; n=7): 22%
average SE of VT across brain regions (identifiability) ([4]; one-compartment model): 1.8%
scan duration adequate to measure VT / CB1 receptors ([4]; truncation of the 120-min scan): 80 min
free fraction in plasma (fP) [5]: too low to measure accurately
time of peak concentration in arterial plasma [5]: 75 s
peak concentration in arterial plasma ([5]; after i.v. injection): 24±8 SUV
fraction of parent as percentage of total plasma radioactivity ([5]; at 75 min): 51±13%
plasma concentrations of 11C-SD5024 relative to 11C-MePPEP ([5]; from 30 to 120 min): five-times
